Legend:
KDR (VEGFR2) = target: T1, KDR (VEGFR2) (Homo sapiens, UniProt P35968); assay: KDR (VEGFR2) in vitro kinase assay; format: biochemical; conditions: 1 ug enzyme, 1 uM ATP, 30° C., 20 min
T1 construct: The 6×-HIS tagged cytoplasmic kinase domain of KDR was expressed and purified from Sf9 insect cell lysates; 6xHis; made in house; host or cells: Sf9 insect cells
Protocol: KDR (VEGFR2) Purification and in vitro Kinase Assay
The 6×-HIS tagged cytoplasmic kinase domain of KDR was expressed and purified from Sf9 insect cell lysates as described above with the following modification:
1× kinase buffer for chromatography washes and elution was changed to 100 mM HEPES pH 7.5, 10 mM MnCl2 and 5 mM β-mercaptoethanol. The resulting material was approximately 40% pure and had tyrosine autophosphorylation activity.
Reactions: 1 ug enzyme in 1×KB, compound dilution series in 1×KB/16% DMSO (20 uM to 1 nM final concentration with 4% DMSO final concentration), reactions were started by adding ATP mix (1 uM ATP/1 uCi ^33P-[…]-ATP final concentrations) in 1×KB.
Reactions were incubated at 30° C. for 20 min. The reactions were stopped and quantitated using standard TCA/BSA precipitation onto Millipore FC glass fiber filter plates and by liquid scintillation counting on a MicroBeta JET.

[1] = tested on: TGF-β dependent luciferase production in Mv1Lu C1 cells (p3TP-Lux reporter); assay: MV1LU p3TP-Lux assay; format: cell-based; conditions: TGF-β1 10 pM, 16-20 hrs
Text: A stable Mv1Lu clone (C1) containing the p3TP-Lux reporter was created by standard transfection and puromycin selection protocols. This stable clone was used to screen the example compounds for their ability to inhibit TGF-β dependent luciferase production as briefly described below: • 1. Plated Mv1Lu C1 cells in Wallac™ Black Isoplates • 2. Allowed cells to adhere overnight. • 3. Removed media and replaced with 0.5% FBS DMEM media • 4. Added the compound dilution series in 0.5% FBS/DMEM containing 1% DMSO such that the final compound concentration ranged from 20 uM to 0.1 nM and the final DMSO concentration was 0.2%. • 5. Incubated at 37° C./5% CO2 for 2 hrs. • 6. Added 0.5% FBS/DMEM as control or TGF-β1 diluted in 0.5% FBS/DMEM (final concentration of 10 pM) to the −/+ TGF-β wells respectively • 7. Incubated for 16-20 hrs. at 37° C./5% CO2 • 8. Removed media and rinsed 1× with PBS. • 9. Removed PBS and lysed the cells with 1× Passive Lysis Buffer (Promega) at room temperature. • 10. Counted relative luciferase activity on the MicroBeta JET by injecting Luciferase Assay Reagent II (PROMEGA).
The use of the above assay in measuring TGF-β responsive activity is described in Wrana, et al. Cell 71: 1003-1014 (1992).

p38α/SAPK2α = target: T2, p38α/SAPK2α (Homo sapiens, UniProt Q16539); assay: p38α in vitro kinase assay; format: biochemical; conditions: 5 nM p38α, 62.5 uM EGFR substrate, 100 uM ATP, 30° C., 40 min
T2 construct: purchased Upstate Biotechnology 14-251
T2 sequence (Q16539 whole entry): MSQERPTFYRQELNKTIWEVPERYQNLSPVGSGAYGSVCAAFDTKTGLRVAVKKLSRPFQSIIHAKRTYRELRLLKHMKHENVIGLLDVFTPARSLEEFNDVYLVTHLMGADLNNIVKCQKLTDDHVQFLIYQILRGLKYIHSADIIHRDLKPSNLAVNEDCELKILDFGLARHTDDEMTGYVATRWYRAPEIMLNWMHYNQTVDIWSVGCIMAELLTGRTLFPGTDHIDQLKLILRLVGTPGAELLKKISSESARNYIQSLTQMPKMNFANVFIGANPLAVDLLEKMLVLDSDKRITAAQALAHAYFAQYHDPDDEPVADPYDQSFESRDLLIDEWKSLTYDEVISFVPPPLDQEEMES
Protocol: p38α in vitro Kinase Assay
Active p38α/SAPK2α was purchased from Upstate Biotechnology (cat#14-251). A known p38α substrate from EGFR was used in the assay (Young, et al. (1997) JBC 272: 12116-12121).
Reactions were performed in 1× kinase buffer (25 mM Tris-HCl pH 7.5, 5 mM β-glycerophosphate, 2 mM DTT, 0.1 mM Na3VO4, 10 mM MgCl2, 1 uM Microcystin) with 5 nM p38α, 62.5 uM substrate, 40 uM to 0.2 nM compound dilution series in 1×KB/16% DMSO (final 4% DMSO concentration). Reactions were started by addition of 100 uM ATP (final concentration) with 1 uCi ^33P-γ-ATP in 1×KB and incubated at 30° C. for 40 min. Reactions were stopped with H3PO4 and quantitated on Millipore PH phosphocellulose filter plates by liquid scintillation counting on a MicroBeta JET.

[2] = target: T3, TGF-β Type II (RII WT) receptor (Homo sapiens, UniProt P37173); assay: TGF-β Receptor II (RII WT) in vitro kinase reaction; format: biochemical; conditions: 6×-HIS cytoplasmic kinase domain, 4 uM ATP, 30° C., 40 min
T3 construct: The 6×-HIS tagged cytoplasmic kinase domain of each receptor was expressed and purified from Sf9 insect cell lysates; 6xHis; made in house; host or cells: Sf9 insect cells
T3 sequence (P37173 244-544 limits assumed): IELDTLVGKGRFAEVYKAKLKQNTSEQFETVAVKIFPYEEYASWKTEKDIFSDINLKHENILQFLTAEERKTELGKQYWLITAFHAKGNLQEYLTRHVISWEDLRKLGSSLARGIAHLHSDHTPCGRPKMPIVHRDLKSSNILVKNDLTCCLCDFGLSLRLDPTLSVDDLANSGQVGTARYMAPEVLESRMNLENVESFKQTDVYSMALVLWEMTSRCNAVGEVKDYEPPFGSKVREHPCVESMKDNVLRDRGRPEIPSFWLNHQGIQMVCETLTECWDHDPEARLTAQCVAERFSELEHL
Protocol: (§1) TGF-β Receptor I and II Purification and in vitro Kinase Reactions
(§2) For TGF-β Type I (RIT204D) and Type II (RII WT) Receptors: The 6×-HIS tagged cytoplasmic kinase domain of each receptor was expressed and purified from Sf9 insect cell lysates as briefly described below:
(§3) Cell pellets after 48-72 hrs of infection were lysed in lysis buffer (LB: 50 mM Tris pH 7.5, 150 mM NaCl, 50 mM NaF, 0.5% NP40 with freshly added 20 mM, β-mercaptoethanol, 10 mM imidazole, 1 mM PMSF, 1×EDTA-free Complete Protease Inhibitor (Boehringer Mannheim).
Cell lysates were clarified: by centrifugation and […] filtered prior to purification by Ni/NTA affinity chromatography (Qiagen).
Equilibrate with 10 CV of LB, load sample, wash with 10 CV RIPA buffer (50 mM Tris pH 7.5, 150 mM NaCl, 1% NP40, 1 mM EDTA, 0.25% sodium deoxycholate, added fresh 20 mM β-mercaptoethanol, 1 mM PMSF), wash with 10 CV LB, wash with 10 CV 1×KB (50 mM Tris pH 7.5, 150 mM NaCl, 4 mM MgCl2, 1 mM NaF, 2 mM β-mercaptoethanol), elute with a linear gradient of 1×KB containing 200 mM Imidazole.
Both enzymes were approximately 90% pure and had autophosphorylation activity.
(§4) Reactions: 170-200 nM enzyme in 1×KB, compound dilution series in 1×KB/16% DMSO (20 uM to 1 nM final concentration with 4% DMSO final concentration), reactions started by adding ATP mix (4 uM ATP/1 uCi ^33P-[…]-ATP final concentrations) in 1×KB.
(§5) Reactions were incubated at 30° C. for 1 hr RIT204D or 40 min for RII WT. Reactions were stopped and quantitated using standard TCA/BSA precipitation onto Millipore FB glass fiber filter plates and by liquid scintillation counting on a MicroBeta JET.

[3] = target: T4, TGF-β Type I (RIT204D) receptor (Homo sapiens, UniProt P36897, T204D); assay: TGF-β Receptor I (RIT204D) in vitro kinase reaction; format: biochemical; conditions: 6×-HIS cytoplasmic kinase domain, 4 uM ATP, 30° C., 1 hr
T4 construct: The 6×-HIS tagged cytoplasmic kinase domain of each receptor was expressed and purified from Sf9 insect cell lysates; 6xHis; made in house; host or cells: Sf9 insect cells
T4 sequence (P36897 148-503 T204D limits assumed): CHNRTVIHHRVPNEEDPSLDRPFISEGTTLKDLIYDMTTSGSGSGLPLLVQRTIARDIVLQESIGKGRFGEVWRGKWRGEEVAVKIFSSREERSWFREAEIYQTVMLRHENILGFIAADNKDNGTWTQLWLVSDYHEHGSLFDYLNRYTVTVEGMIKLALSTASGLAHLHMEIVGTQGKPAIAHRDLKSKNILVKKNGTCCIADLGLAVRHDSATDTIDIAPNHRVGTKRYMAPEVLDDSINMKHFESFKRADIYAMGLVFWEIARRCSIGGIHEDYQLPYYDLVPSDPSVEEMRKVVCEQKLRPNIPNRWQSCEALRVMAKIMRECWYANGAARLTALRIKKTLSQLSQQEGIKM
Protocol: as §1, §2, §3, §4, §5

T1 sequence (P35968 834-1162 limits assumed, species assumed): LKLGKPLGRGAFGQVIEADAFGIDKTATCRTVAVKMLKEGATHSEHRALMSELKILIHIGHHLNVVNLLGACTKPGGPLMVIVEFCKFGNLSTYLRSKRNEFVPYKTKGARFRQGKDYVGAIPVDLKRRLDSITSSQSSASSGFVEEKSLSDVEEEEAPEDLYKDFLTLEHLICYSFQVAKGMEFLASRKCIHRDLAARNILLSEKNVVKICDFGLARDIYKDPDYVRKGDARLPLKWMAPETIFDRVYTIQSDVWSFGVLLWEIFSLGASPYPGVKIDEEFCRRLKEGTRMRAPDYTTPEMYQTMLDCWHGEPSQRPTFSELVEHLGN

| IC50 [1] [µM] | SMILES | other results |
| --- | --- | --- |
|  | Cc1cccc(-c2nn3c(c2-c2ccnc4cc(OCCCN5CCOCC5)ccc24)CCC3)n1 [4-[2-(6-Methyl-pyridin-2-yl)-5,6-dihydro-4H-pyrrolo[1,2-b]pyrazol-3-yl]-7-(3-morpholin-4-yl-propoxy)-quinoline] | IC50 (KDR (VEGFR2)): < 20 µM |
|  | CC(=O)NCCNC(=O)c1ccc2c(-c3c(-c4ccccn4)nn4c3CCC4)ccnc2c1 [4-(2-Pyridin-2-yl-5,6-dihydro-4H-pyrrolo[1,2-b]pyrazol-3-yl)-quinoline-7-carboxylic acid (2-acetylamino-ethyl)-amide] | IC50 (KDR (VEGFR2)): < 20 µM |
| < 20 | COC(=O)c1ccc2nccc(-c3c(-c4cccc(C)n4)nn4c3CCC4)c2c1 [4-[2-(6-Methyl-pyridin-2-yl)-5,6-dihydro-4H-pyrrolo[1,2-b]pyrazol-3-yl]-quinoline-6-carboxylic acid methyl ester] |  |
| < 20 | OCc1cccc(-c2nn3c(c2-c2ccnc4ccccc24)CCC3)n1 [[6-(3-Quinolin-4-yl-5,6-dihydro-4H-pyrrolo[1,2-b]pyrazol-2-yl)-pyridin-2-yl]-methanol] |  |
| < 20 | Cc1cccc(-c2nn3c(c2-c2ccnc4cc(CCC(=O)N(C)C)ccc24)CCC3)n1 [N,N-Dimethyl-3-{4-[2-(6-methyl-pyridin-2-yl)-5,6-dihydro-4H-pyrrolo[1,2-b]pyrazol-3-yl]-quinolin-7-yl}-propionamide] |  |
| < 20 | Clc1cc(-c2c(-c3ccccn3)nn3c2CCC3)ccn1 [3-(2-Chloro-pyridin-4-yl)-2-pyridin-2-yl-5,6-dihydro-4H-pyrrolo[1,2-b]pyrazole] |  |
|  | c1ccc(-c2nn3c(c2-c2ccnc4cc(OCCCN5CCCC5)ccc24)CCC3)nc1 [4-(2-Pyridin-2-yl-5,6-dihydro-4H-pyrrolo[1,2-b]pyrazol-3-yl)-7-(3-pyrrolidin-1-yl-propoxy)-quinoline] | IC50 (KDR (VEGFR2)): < 20 µM |
| < 20 | Cc1cccc(-c2nn3c(c2-c2cccc4ccccc24)CCC3)n1 [2-(6-methyl-pyridin-2-yl)-3-naphthalen-1-yl-5,6-dihydro-4H-pyrrolo[1,2-b]pyrazole] |  |
| < 20 | Cc1cccc(-c2nn3c(c2-c2ccnc4cc(OCCCCl)ccc24)CCC3)n1 [7-(3-chloro-propoxy)-4-[2-(6-methyl-pyridin-2-yl)-5,6-dihydro-4H-pyrrolo[1,2-b]pyrazol-3-yl]-quinoline] |  |
| < 20 | NNC(=O)c1ccc2nccc(-c3c(-c4ccccn4)nn4c3CCC4)c2c1 [4-(2-Pyridin-2-yl-5,6-dihydro-4H-pyrrolo[1,2-b]pyrazol-3-yl)-quinoline-6-carboxylic acid hydrazide] |  |
| < 20 | Cc1cccc(-c2nn3c(c2-c2ccnc4ccccc24)CC(c2ccc(F)cc2)C3)n1 (single isomer, unassigned) [4-[5-(4-Fluoro-phenyl)-2-(6-methyl-pyridin-2-yl)-5,6-dihydro-4H-pyrrolo[1,2-b]pyrazol-3-yl]-quinoline] |  |
| < 20 | c1ccc(-c2nn3c(c2-c2ccnc4cc(OCCCN5CCCCCC5)ccc24)CCC3)nc1 [7-(3-azepan-1-yl-propoxy)-4-(2-pyridin-2-yl-5,6-dihydro-4H-pyrrolo[1,2-b]pyrazol-3-yl)-quinoline] |  |
| < 20 | Cc1cccc(-c2nn3c(c2-c2ccnc4ccc(C(C)(C)O)cc24)CCC3)n1 [2-{4-[2-(6-Methyl-pyridin-2-yl)-5,6-dihydro-4H-pyrrolo[1,2-b]pyrazol-3-yl]-quinolin-6-yl}-propan-2-ol] |  |
| < 20 | Cc1cccc(-c2nn3c(c2-c2ccnc4c(F)cccc24)CCC3)n1 [8-Fluoro-4-[2-(6-methyl-pyridin-2-yl)-5,6-dihydro-4H-pyrrolo[1,2-b]pyrazol-3-yl]-quinoline] |  |
| < 20 | Cc1cccc(-c2nn3c(c2-c2ccnc4ccc(-c5ccc6c(c5)OCO6)cc24)CCC3)n1 [6-Benzo[1,3]dioxol-5-yl-4-[2-(6-methyl-pyridin-2-yl)-5,6-dihydro-4H-pyrrolo[1,2-b]pyrazol-3-yl]-quinoline] |  |
|  | CNC(=O)c1ccc2c(-c3c(-c4ccccn4)nn4c3CCC4)ccnc2c1 [4-(2-Pyridin-2-yl-5,6-dihydro-4H-pyrrolo[1,2-H]pyrazol-3-yl)-quinoline-7-carboxylic acid methylamide] | IC50 (p38α/SAPK2α): < 20 µM; IC50 [2]: < 20 µM; IC50 [3]: < 20 µM |
| < 20 | Cc1cccc(-c2nn3c(c2-c2ccc(F)cc2)CC(c2ccc(Cl)cc2)C3)n1 (stereo not shown) [5-(4-Chloro-phenyl)-3-(4-fluoro-phenyl)-2-(6-methyl-pyridin-2-yl)-5,6-dihydro-4H-pyrrolo[1,2-b]pyrazole] |  |
|  | OCCCSc1ccc2c(-c3c(-c4ccccn4)nn4c3CCC4)ccnc2c1 [3-[4-(2-Pyridin-2-yl-5,6-dihydro-4H-pyrrolo[1,2-b]pyrazol-3-yl)-quinolin-7-ylsulfanyl]-propan-1-ol] | IC50 (p38α/SAPK2α): < 20 µM; IC50 [2]: < 20 µM |
| < 20 | OCC1CCc2c(-c3ccnc4ccccc34)c(-c3ccccn3)nn21 (stereo not shown) [4-(6-Hydroxymethyl-2-pyridin-2-yl-5,6-dihydro-4H-pyrrolo[1,2-b]pyrazol-3yl)-quinoline] |  |

— patent US7087626B2, “Pyrrole derivatives as pharmaceutical agents” (Eli Lilly and Company, priority 2001, dated 2006)
